Source: patent publication US10307425B2, “Compositions and methods for treating toxoplasmosis, cryptosporidiosis and other apicomplexan protozoan related diseases” (UNIVERSITY OF WASHINGTON, priority 2015, dated 2019)

Each molecule was assayed against TgCDPK1 (Toxoplasma gondii, UniProt Q9BJF5) (assay: biochemical).
TgCDPK1, sequence (Q9BJF5 1-507): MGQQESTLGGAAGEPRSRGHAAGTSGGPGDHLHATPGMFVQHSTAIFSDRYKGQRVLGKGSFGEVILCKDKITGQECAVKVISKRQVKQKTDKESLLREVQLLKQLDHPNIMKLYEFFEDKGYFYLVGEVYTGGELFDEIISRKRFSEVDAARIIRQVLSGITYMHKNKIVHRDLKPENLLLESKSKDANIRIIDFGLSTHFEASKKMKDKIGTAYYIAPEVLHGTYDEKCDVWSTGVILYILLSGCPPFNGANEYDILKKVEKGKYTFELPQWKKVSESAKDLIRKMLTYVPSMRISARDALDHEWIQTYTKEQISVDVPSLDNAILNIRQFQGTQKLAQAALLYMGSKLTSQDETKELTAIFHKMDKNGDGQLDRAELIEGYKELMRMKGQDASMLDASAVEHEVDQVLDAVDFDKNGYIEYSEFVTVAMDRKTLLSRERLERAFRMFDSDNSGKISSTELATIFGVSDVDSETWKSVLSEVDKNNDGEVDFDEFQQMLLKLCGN
Molecule CC(C)(O)C(C)(C)Cn1nc(-c2ccc3nc(OC4CC4)ccc3c2)c2c(N)ncnc21 [Example 56, 4-(4-amino-3-(2-cyclopropoxyquinolin-6-yl)-1H-pyrazolo[3,4-d]pyrimidin-1-yl)-2,3,3-trimethylbutan-2-ol] has an IC50 of 70.8 nM.
With Nc1ncnc2c1c(-c1ccc3nc(OC4CC4)ccc3c1)nn2CC1(O)CCC1 [Example 57, 1-((4-amino-3-(2-cyclopropoxyquinolin-6-yl)-1H-pyrazolo[3,4-d]pyrimidin-1-yl)methyl)cyclobutanol] the IC50 was 6.1 nM.
With CC(C)(O)Cn1cc(-c2ccc3cc(OC4CC4)ccc3c2)c2c(N)ncnc21 [Example 58, 1-(4-amino-5-(6-cyclopropoxynaphthalen-2-yl)-7H-pyrrolo[2,3-d]pyrimidin-7-yl)-2-methylpropan-2-ol] the IC50 was 9.1 nM.
With Nc1ncnc2c1c(-c1ccc3cc(OC4CC4)ccc3c1)nn2CC1(O)CCC1 [Example 59, 1-((4-amino-3-(6-cyclopropoxynaphthalen-2-yl)-1H-pyrazolo[3,4-d]pyrimidin-1-yl)methyl)cyclobutanol] the IC50 was 8.6 nM.
Work on Nc1ncnc2c1c(-c1ccc3nc(OC4CC4)ccc3c1)nn2CC1(O)CCCC1 [Example 60, 1-((4-amino-3-(2-cyclopropoxyquinolin-6-yl)-1H-pyrazolo[3,4-d]pyrimidin-1-yl)methyl)cyclopentanol] yielded an IC50 of 12.7 nM.
In the case of Nc1ncnc2c1c(-c1ccc3cc(OC4CC4)ccc3c1)nn2CC1(O)CCCC1 [Example 61, 1-((4-amino-3-(6-cyclopropoxynaphthalen-2-yl)-1H-pyrazolo[3,4-d]pyrimidin-1-yl)methyl)cyclopentanol], the IC50 is reported as 13 nM.
Nc1ncnc2c1c(-c1ccc3nc(OC4CC4)ccc3c1)nn2CC1(O)CCOCC1 [Example 62, 4-((4-amino-3-(2-cyclopropoxyquinolin-6-yl)-1H-pyrazolo[3,4-d]pyrimidin-1-yl)methyl)-tetrahydro-2H-pyran-4-ol] gave an IC50 of 19.2 nM.
Molecule Nc1ncnc2c1c(-c1ccc3cc(OC4CC4)ccc3c1)nn2CC1(O)CCOCC1 [Example 63, 4-((4-amino-3-(6-cyclopropoxynaphthalen-2-yl)-1H-pyrazolo[3,4-d]pyrimidin-1-yl)methyl)-tetrahydro-2H-pyran-4-ol] has an IC50 of 12.8 nM.
Nc1ncnc2c1c(-c1ccc3nc(OC4CC4)ccc3c1)nn2CC1(CO)COC1 [Example 64, (3-((4-amino-3-(2-cyclopropoxyquinolin-6-yl)-1H-pyrazolo[3,4-d]pyrimidin-1-yl)methyl)oxetan-3-yl)methanol] showed an IC50 of 3.6 nM.
Work on Nc1ncnc2c1c(-c1ccc3cc(OC4CC4)ccc3c1)nn2CC1(CO)COC1 [Example 65, (3-((4-amino-3-(6-cyclopropoxynaphthalen-2-yl)-1H-pyrazolo[3,4-d]pyrimidin-1-yl)methyl)oxetan-3-yl)methanol] yielded an IC50 of 2.9 nM.
In the case of COC(C)(C)Cn1nc(-c2ccc3cc(OC4CC4)ccc3c2)c2c(N)ncnc21 [Example 66, 3-(6-cyclopropoxynaphthalen-2-yl)-1-(2-methoxy-2-methylpropyl)-1H-pyrazolo[3,4-d]pyrimidin-4-amine], the IC50 is reported as 1660 nM.
COC(C)(C)Cn1nc(-c2ccc3nc(OC4CC4)ccc3c2)c2c(N)ncnc21 [Example 67, 3-(2-cyclopropoxyquinolin-6-yl)-1-(2-methoxy-2-methylpropyl)-1H-pyrazolo[3,4-d]pyrimidin-4-amine] was tested, and the IC50 was 430 nM.
COC(=O)C(C)(C)Cn1nc(-c2ccc3cc(OC4CC4)ccc3c2)c2c(N)ncnc21 [Example 68, methyl 3-(4-amino-3-(6-cyclopropoxynaphthalen-2-yl)-1H-pyrazolo[3,4-d]pyrimidin-1-yl)-2,2-dimethylpropanoate] gave an IC50 of 9.7 nM.
Work on COC(=O)C(C)(C)Cn1nc(-c2ccc3nc(OC4CC4)ccc3c2)c2c(N)ncnc21 [Example 69, methyl 3-(4-amino-3-(2-cyclopropoxyquinolin-6-yl)-1H-pyrazolo[3,4-d]pyrimidin-1-yl)-2,2-dimethylpropanoate] yielded an IC50 of 43.2 nM.
In the case of CCOc1ccc2cc(-c3nn(CC4(O)CCNCC4)c4ncnc(N)c34)ccc2c1 [Example 70, 4-((4-amino-3-(6-ethoxynaphthalen-2-yl)-1H-pyrazolo[3,4-d]pyrimidin-1-yl)methyl)piperidin-4-ol], the IC50 is reported as 23.3 nM.
In the case of CCOc1ccc2cc(-c3nn(CC4(O)CCN(C)CC4)c4ncnc(N)c34)ccc2c1 [Example 71, 4-((4-amino-3-(6-ethoxynaphthalen-2-yl)-1H-pyrazolo[3,4-d]pyrimidin-1-yl)methyl)-1-methylpiperidin-4-ol], the IC50 is reported as 59.3 nM.
COC(=O)COc1ccc2cc(-c3nn(CC4CCN(C)CC4)c4ncnc(N)c34)ccc2c1 [Example 72, methyl 2-((6-(4-amino-1-((1-methylpiperidin-4-yl)methyl)-1H-pyrazolo[3,4-d]pyrimidin-3-yl)naphthalen-2-yl)oxy)acetate] showed an IC50 of 49.6 nM.
Molecule CN1CCC(Cn2nc(-c3ccc4cc(OCC#N)ccc4c3)c3c(N)ncnc32)CC1 [Example 73, 2-((6-(4-amino-1-((1-methylpiperidin-4-yl)methyl)-1H-pyrazolo[3,4-d]pyrimidin-3-yl)naphthalen-2-yl)oxy)acetonitrile] has an IC50 of 73.8 nM.
With CCOc1ccc2cc(-c3nn(CC4(C#N)CCNCC4)c4ncnc(N)c34)ccc2c1 [Example 74, 4-((4-amino-3-(6-ethoxynaphthalen-2-yl)-1H-pyrazolo[3,4-d]pyrimidin-1-yl)methyl)piperidine-4-carbonitrile] the IC50 was 2.7 nM.
CCOc1ccc2cc(-c3nn(CC4(C#N)CCN(C)CC4)c4ncnc(N)c34)ccc2c1 [Example 75, 4-((4-amino-3-(6-ethoxynaphthalen-2-yl)-1H-pyrazolo[3,4-d]pyrimidin-1-yl)methyl)-1-methylpiperidine-4-carbonitrile] gave an IC50 of 18.3 nM.
CC(C)(Cn1nc(-c2ccc3cc(OC4CC4)ccc3c2)c2c(N)ncnc21)C(=O)O [Example 76, 3-(4-amino-3-(6-cyclopropoxynaphthalen-2-yl)-1H-pyrazolo[3,4-d]pyrimidin-1-yl)-2,2-dimethylpropanoic acid] was tested, and the IC50 was 19.4 nM.
Work on CC(C)(F)Cn1nc(-c2ccc3cc(OC4CC4)ccc3c2)c2c(N)ncnc21 [Example 77, 3-(6-cyclopropoxynaphthalen-2-yl)-1-(2-fluoro-2-methylpropyl)-1H-pyrazolo[3,4-d]pyrimidin-4-amine] yielded an IC50 of 6.4 nM.
Nc1ncnc2c1c(-c1ccc3cc(OC4CC4)ccc3c1)nn2CC1(O)CCNCC1 [Example 78, 4-((4-amino-3-(6-cyclopropoxynaphthalen-2-yl)-1H-pyrazolo[3,4-d]pyrimidin-1-yl)methyl)piperidin-4-ol] was tested, and the IC50 was 0.7 nM.
In the case of CN1CCC(O)(Cn2nc(-c3ccc4cc(OC5CC5)ccc4c3)c3c(N)ncnc32)CC1 [Example 79, 4-((4-amino-3-(6-cyclopropoxynaphthalen-2-yl)-1H-pyrazolo[3,4-d]pyrimidin-1-yl)methyl)-1-methylpiperidin-4-ol], the IC50 is reported as 4.5 nM.
In the case of CCOc1ccc2cc(-c3nn(CC4(O)CCN(C)CC4)c4ncnc(N)c34)ccc2n1 [Example 80, 4-((4-amino-3-(2-ethoxyquinolin-6-yl)-1H-pyrazolo[3,4-d]pyrimidin-1-yl)methyl)-1-methylpiperidin-4-ol], the IC50 is reported as 23.1 nM.
In the case of Nc1ncnc2c1c(-c1ccc3nc(OC4CC4)ccc3c1)nn2CC1(O)CCNCC1 [Example 82, 4-((4-amino-3-(2-cyclopropoxyquinolin-6-yl)-1H-pyrazolo[3,4-d]pyrimidin-1-yl)methyl)piperidin-4-ol], the IC50 is reported as 0.7 nM.
For CN1CCC(C#N)(Cn2nc(-c3ccc4cc(OC5CC5)ccc4c3)c3c(N)ncnc32)CC1 [Example 83, 4-((4-amino-3-(6-cyclopropoxynaphthalen-2-yl)-1H-pyrazolo[3,4-d]pyrimidin-1-yl)methyl)-1-methylpiperidine-4-carbonitrile], the IC50 was 3.5 nM.
Molecule CCOc1ccc2cc(-c3nn(CC4(O)CCNCC4)c4ncnc(N)c34)ccc2n1 [Example 84, 4-((4-amino-3-(2-ethoxyquinolin-6-yl)-1H-pyrazolo[3,4-d]pyrimidin-1-yl)methyl)piperidin-4-ol] has an IC50 of 4 nM.
Molecule CN1CCC(O)(Cn2nc(-c3ccc4nc(OC5CC5)ccc4c3)c3c(N)ncnc32)CC1 [Example 85, 4-((4-amino-3-(2-cyclopropoxyquinolin-6-yl)-1H-pyrazolo[3,4-d]pyrimidin-1-yl)methyl)-1-methylpiperidin-4-ol] has an IC50 of 21 nM.
With CCOc1ccc2cc(-c3nn(CC4(C#N)CCNCC4)c4ncnc(N)c34)ccc2n1 [Example 86, 4-((4-amino-3-(2-ethoxyquinolin-6-yl)-1H-pyrazolo[3,4-d]pyrimidin-1-yl)methyl)piperidine-4-carbonitrile] the IC50 was 1.5 nM.
For CCOc1ccc2cc(-c3nn(CC4(C#N)CCN(C)CC4)c4ncnc(N)c34)ccc2n1 [Example 87, 4-((4-amino-3-(2-ethoxyquinolin-6-yl)-1H-pyrazolo[3,4-d]pyrimidin-1-yl)methyl)-1-methylpiperidine-4-carbonitrile], the IC50 was 103 nM.
CC(C)(O)Cn1nc(-c2ccc3cc(OCC#N)ccc3c2)c2c(N)ncnc21 [Example 88, 2-(6-(4-amino-1-(2-hydroxy-2-methylpropyl)-1H-pyrazolo[3,4-d]pyrimidin-3-yl)naphthalen-2-yloxy)acetonitrile] gave an IC50 of 112 nM.
Work on COC(=O)COc1ccc2cc(-c3nn(CC4CCNCC4)c4ncnc(N)c34)ccc2n1 [Example 89, methyl 2-(6-(4-amino-1-(piperidin-4-ylmethyl)-1H-pyrazolo[3,4-d]pyrimidin-3-yl)quinolin-2-yloxy)acetate] yielded an IC50 of 1440 nM.
Nc1ncnc2c1c(-c1ccc3cc(OC4CC4)ccc3c1)nn2CC1(O)CNC1 [Example 90, 3-((4-amino-3-(6-cyclopropoxynaphthalen-2-yl)-1H-pyrazolo[3,4-d]pyrimidin-1-yl)methyl)azetidin-3-ol] gave an IC50 of 5.1 nM.
Molecule CN1CC(O)(Cn2nc(-c3ccc4cc(OC5CC5)ccc4c3)c3c(N)ncnc32)C1 [Example 91, 3-((4-amino-3-(6-cyclopropoxynaphthalen-2-yl)-1H-pyrazolo[3,4-d]pyrimidin-1-yl)methyl)-1-methylazetidin-3-ol] has an IC50 of 3.8 nM.
Work on CN1CCC(C#N)(Cn2nc(-c3ccc4nc(OC5CC5)ccc4c3)c3c(N)ncnc32)CC1 [Example 92, 4-((4-amino-3-(2-cyclopropoxyquinolin-6-yl)-1H-pyrazolo[3,4-d]pyrimidin-1-yl)methyl)-1-methylpiperidine-4-carbonitrile] yielded an IC50 of 5.5 nM.
